Test results from US12037344B2, “NLRP3 modulators” (INNATE TUMOR IMMUNITY, INC., priority 2018, dated 2024).
Read-outs that look alike come from different tables or passages of the source.

What was measured:
[1] = test system: THP-1 cells; experiment: Measurement of IL-1β production, hTRF protocol (second alternative procedure), THP-1 cells; assay type: cell-based, human; conditions: Homo sapiens
How it was run: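 Compounds, dilution series starting at a final 10 μM, were incubated 2 hours at 37° C with PMA-differentiated THP-1 cells (50 ng/ml overnight; 50,000 cells/well, 2% FBS RPMI). Released IL-1β quantified in supernatant by hTRF kit with 1:40 antibody dilution, 4° C overnight, 665/615 nm ratio.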

[2] = target: T1, TLR7 (Homo sapiens, UniProt Q9NYK1); experiment: In vitro human TLR7 binding reporter assay (HEK-Blue, NF-kB/AP1-inducible SEAP); assay type: cell-based; conditions: activity range class, read-out: TLR7 Agonist EC50
T1 construct: human HEK-Blue cells co-expressing a TLR7 or TLR8 gene
T1 sequence (Q9NYK1 27-1049): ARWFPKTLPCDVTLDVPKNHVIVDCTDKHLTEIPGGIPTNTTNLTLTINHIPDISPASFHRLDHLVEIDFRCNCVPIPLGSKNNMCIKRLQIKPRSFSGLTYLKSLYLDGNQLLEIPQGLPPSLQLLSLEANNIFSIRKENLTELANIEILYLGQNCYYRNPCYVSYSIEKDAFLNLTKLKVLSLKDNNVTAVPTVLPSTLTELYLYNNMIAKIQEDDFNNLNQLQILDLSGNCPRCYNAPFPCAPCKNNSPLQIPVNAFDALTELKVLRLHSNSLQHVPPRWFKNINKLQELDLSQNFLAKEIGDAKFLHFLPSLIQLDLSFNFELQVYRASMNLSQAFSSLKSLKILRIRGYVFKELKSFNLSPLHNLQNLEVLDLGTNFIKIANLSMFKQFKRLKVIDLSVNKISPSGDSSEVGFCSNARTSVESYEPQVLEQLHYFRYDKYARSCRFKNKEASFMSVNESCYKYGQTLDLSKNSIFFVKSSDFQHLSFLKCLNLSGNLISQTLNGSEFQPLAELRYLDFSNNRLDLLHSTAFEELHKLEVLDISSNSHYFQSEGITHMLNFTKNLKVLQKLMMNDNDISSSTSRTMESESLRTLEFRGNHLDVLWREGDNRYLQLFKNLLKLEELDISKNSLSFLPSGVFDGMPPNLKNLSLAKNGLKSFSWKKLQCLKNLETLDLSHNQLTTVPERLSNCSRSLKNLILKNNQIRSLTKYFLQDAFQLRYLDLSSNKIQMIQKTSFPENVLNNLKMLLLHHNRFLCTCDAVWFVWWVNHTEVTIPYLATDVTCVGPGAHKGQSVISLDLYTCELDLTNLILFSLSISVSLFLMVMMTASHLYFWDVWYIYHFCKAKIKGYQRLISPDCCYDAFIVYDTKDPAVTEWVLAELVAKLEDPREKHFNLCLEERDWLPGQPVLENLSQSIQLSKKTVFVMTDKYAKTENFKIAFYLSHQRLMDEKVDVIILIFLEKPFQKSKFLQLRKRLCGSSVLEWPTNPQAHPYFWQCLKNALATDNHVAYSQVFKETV
How it was run: (§1)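 HEK-Blue cells expressing human TLR7 or TLR8 with NF-kB/AP1-inducible SEAP reporter, plated 24 h, then compound-treated 18 h at 37° C, 5% CO2. EC50 normalized to 100% Ymax set by 50 μM reference standard.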

[3] = target: T2, TLR8 (Homo sapiens, UniProt Q9NR97); experiment: In vitro human TLR8 binding reporter assay (HEK-Blue, NF-kB/AP1-inducible SEAP); assay type: cell-based; conditions: activity range class, read-out: TLR8 Agonist EC50
T2 construct: human HEK-Blue cells co-expressing a TLR7 or TLR8 gene
T2 sequence (Q9NR97 27-1041): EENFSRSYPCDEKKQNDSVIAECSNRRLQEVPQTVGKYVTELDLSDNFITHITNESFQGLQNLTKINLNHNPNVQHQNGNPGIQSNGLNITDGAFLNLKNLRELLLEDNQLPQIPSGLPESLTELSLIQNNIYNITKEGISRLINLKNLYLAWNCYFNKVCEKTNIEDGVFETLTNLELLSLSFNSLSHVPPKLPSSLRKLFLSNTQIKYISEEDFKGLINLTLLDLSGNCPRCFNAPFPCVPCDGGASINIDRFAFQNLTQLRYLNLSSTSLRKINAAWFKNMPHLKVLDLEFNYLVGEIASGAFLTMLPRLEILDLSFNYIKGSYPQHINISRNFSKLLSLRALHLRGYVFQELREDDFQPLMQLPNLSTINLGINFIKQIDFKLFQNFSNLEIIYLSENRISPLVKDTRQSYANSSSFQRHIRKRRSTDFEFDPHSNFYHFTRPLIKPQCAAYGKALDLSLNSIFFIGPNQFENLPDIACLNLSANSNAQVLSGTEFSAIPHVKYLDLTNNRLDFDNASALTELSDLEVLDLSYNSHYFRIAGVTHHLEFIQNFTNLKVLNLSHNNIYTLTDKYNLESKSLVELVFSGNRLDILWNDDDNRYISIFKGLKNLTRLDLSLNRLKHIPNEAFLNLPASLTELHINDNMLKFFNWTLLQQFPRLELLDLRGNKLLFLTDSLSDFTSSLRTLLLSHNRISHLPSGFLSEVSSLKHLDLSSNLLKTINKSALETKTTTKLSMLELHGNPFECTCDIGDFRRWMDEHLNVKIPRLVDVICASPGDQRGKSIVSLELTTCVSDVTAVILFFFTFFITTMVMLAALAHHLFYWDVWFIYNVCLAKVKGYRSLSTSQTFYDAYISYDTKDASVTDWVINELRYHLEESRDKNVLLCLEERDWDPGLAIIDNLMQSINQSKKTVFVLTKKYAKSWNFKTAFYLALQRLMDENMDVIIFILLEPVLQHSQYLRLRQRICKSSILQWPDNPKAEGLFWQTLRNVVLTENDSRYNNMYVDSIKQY
How it was run: as §1

[4] = THP-1, IL-1β production, human, read-out: NLRP3 hILIB EC50

EC50 [1, 4] | EC50 [2] | EC50 [3] | SMILES | EC50 ([1]; THP-1, read-out: NLRP3 hILIB EC50)
0.4 µM | > 100 µM | > 100 µM | Nc1nc2cc(-c3cc[nH]n3)ccc2c2nn(CCCO)cc12 [Example 215] | 
3.04 µM | > 100 µM | > 100 µM | Nc1nc2cc(-c3cc[nH]n3)ccc2c2c1cnn2CCCO [Example 216] | 
1.17 µM | > 100 µM | > 100 µM | Nc1nc2cc(-c3cc[nH]n3)ccc2c2c1cnn2CCO [Example 217] | 
0.2 µM | > 100 µM | > 100 µM | COCCCCn1cc2c(N)nc3cc(-c4cc[nH]n4)ccc3c2n1 [Example 218] | 
0.3 µM | > 100 µM | > 100 µM | COCCCCn1ncc2c(N)nc3cc(-c4cc[nH]n4)ccc3c21 [Example 219] | 
0.12 µM | > 100 µM | > 100 µM | CCCn1cc2c(N)nc3cc(-c4cc[nH]n4)ccc3c2n1 [Example 220] | 
0.21 µM | > 100 µM | > 100 µM | CCCn1ncc2c(N)nc3cc(-c4cc[nH]n4)ccc3c21 [Example 221] | 
0.27 µM | > 100 µM | > 100 µM | CCOCCn1cc2c(N)nc3cc(-c4cc[nH]n4)ccc3c2n1 [Example 222] | 
0.45 µM | > 100 µM | > 100 µM | CCOCCn1ncc2c(N)nc3cc(-c4cc[nH]n4)ccc3c21 [Example 223] | 
0.14 µM | > 100 µM | > 100 µM | Nc1nc2cc(-c3cc[nH]n3)ccc2c2nn(CC(F)F)cc12 [Example 224] | 
0.2 µM | > 100 µM | > 100 µM | Nc1nc2cc(-c3cc[nH]n3)ccc2c2c1cnn2CC(F)F [Example 225] | 
0.44 µM | > 100 µM | > 100 µM | Cc1cc(Cn2cc3c(N)nc4cc(-c5cc[nH]n5)ccc4c3n2)no1 [Example 226] | 
1.81 µM | > 100 µM | > 100 µM | Nc1nc2cc(-c3cc[nH]n3)ccc2c2c1cnn2CCc1ccccn1 [Example 227] | 
0.3 µM | > 100 µM | > 100 µM | COCCCn1ncc2c(N)nc3cc(-c4cc[nH]n4)ccc3c21 [Example 228] | 
0.08 µM | > 100 µM | > 100 µM | Nc1nc2cc(-c3cc[nH]n3)ccc2c2nn(CC3CCCO3)cc12 (stereo not drawn) [Example 229] | 
0.87 µM | > 100 µM | > 100 µM | Nc1nc2cc(-c3cc[nH]n3)ccc2c2c1cnn2CC1CCCO1 (stereo not drawn) [Example 230] | 
1.21 µM | > 100 µM | > 100 µM | CN1CCOC(Cn2ncc3c(N)nc4cc(-c5cc[nH]n5)ccc4c32)C1 (stereo not drawn) [Example 231] | 
1.87 µM | > 100 µM | > 100 µM | C[C@H](CO)Cn1ncc2c(N)nc3cc(-c4cc[nH]n4)ccc3c21 [Example 232] | 

EC50 [1, 4] | EC50 [2] | EC50 [3] | SMILES | EC50 ([1]; THP-1, read-out: NLRP3 hILIB EC50)
1.44 µM | > 100 µM | > 100 µM | Nc1nc2cc(-c3cc[nH]n3)ccc2c2c1cnn2CCOCCO [Example 233] | 
0.56 µM | > 100 µM | > 100 µM | Nc1nc2cc(-c3cc[nH]n3)ccc2c2nn(CC(O)CO)cc12 (stereo not drawn) [Example 234] | 
12.5 µM | > 100 µM | > 100 µM | Nc1nc2cc(-c3cc[nH]n3)ccc2c2c1cnn2CC(O)CO (stereo not drawn) [Example 235] | 
0.79 µM | > 100 µM | > 100 µM | Nc1nc2cc(-c3cc[nH]n3)ccc2c2nn(C3CCOCC3)cc12 [Example 236] | 
0.62 µM | > 100 µM | > 100 µM | Nc1nc2cc(-c3cc[nH]n3)ccc2c2c1cnn2C1CCOC1 (stereo not drawn) [Example 240] | 
0.46 µM | > 100 µM | > 100 µM | Nc1nc2cc(-c3cc[nH]n3)ccc2c2nn(C3COC3)cc12 [Example 241] | 
0.68 µM | > 100 µM | > 100 µM | Nc1nc2cc(-c3cc[nH]n3)ccc2c2c1cnn2C1COC1 [Example 242] | 
1.39 µM | > 100 µM | > 100 µM | Cc1nnc(Cn2cc3c(N)nc4cc(-c5cc[nH]n5)ccc4c3n2)o1 [Example 243] | 
1.8 µM | > 100 µM | > 100 µM | Cc1nnc(Cn2ncc3c(N)nc4cc(-c5cc[nH]n5)ccc4c32)o1 [Example 244] | 
0.94 µM | > 100 µM | > 100 µM | Nc1nc2cc(-c3cc[nH]n3)ccc2c2nn(CC(O)C(F)(F)F)cc12 (stereo not drawn) [Example 245] | 
0.58 µM | > 100 µM | > 100 µM | COC1CCC(n2cc3c(N)nc4cc(-c5cc[nH]n5)ccc4c3n2)C1 (stereo not drawn) [Example 246] | 
0.44 µM | > 100 µM | > 100 µM | COCCn1cc2c(N)nc3cc(-n4cccn4)ccc3c2n1 [Example 247, 2-(2-methoxyethyl)-7-(1H-pyrazol-1-yl)-2H-pyrazolo[4,3-c]quinolin-4-amine] | 
0.65 µM | > 100 µM | > 100 µM | COCCn1cc2c(N)nc3cc(-c4cccs4)ccc3c2n1 [Example 248, 2-(2-methoxyethyl)-7-(thiophen-2-yl)-2H-pyrazolo[4,3-c]quinolin-4-amine] | 
0.64 µM | > 100 µM | > 100 µM | Nc1nc2cc(-n3cccn3)ccc2c2nn(CCO)cc12 [Example 249, 2-(4-amino-7-(1H-pyrazol-1-yl)-2H-pyrazolo[4,3-c]quinolin-2-yl)ethan-1-ol] | 
1.95 µM | > 100 µM | > 100 µM | Nc1nc2cc(-n3cccn3)ccc2c2c1cnn2CCO [Example 250, 2-(4-amino-7-(1H-pyrazol-1-yl)-1H-pyrazolo[4,3-c]quinolin-1-yl)ethan-1-ol] | 
0.62 µM | > 100 µM | > 100 µM | Nc1nc2cc(-n3cccn3)ccc2c2nn(CCCO)cc12 [Example 251, 3-(4-amino-7-(1H-pyrazol-1-yl)-2H-pyrazolo[4,3-c]quinolin-2-yl)propan-1-ol] | 
1.13 µM | > 100 µM | > 100 µM | Nc1nc2cc(-n3cccn3)ccc2c2c1cnn2CCCO [Example 252, 3-(4-amino-7-(1H-pyrazol-1-yl)-1H-pyrazolo[4,3-c]quinolin-1-yl)propan-1-ol] | 

SMILES | EC50 [1, 4] | EC50 [2] | EC50 [3] | EC50 ([1]; THP-1, read-out: NLRP3 hILIB EC50)
CC(CO)n1cc2c(N)nc3cc(-c4ccn[nH]4)ccc3c2n1 (stereo not drawn) [Example 253, 2-[4-amino-7-(1H-pyrazol-5-yl)-2H-pyrazolo[4,3-c]quinolin-2-yl]propan-1-ol] |  | > 100 µM | > 100 µM | 0.3 µM
